{
  "source": "patent US8440612B2",
  "about": "“Controlling giardiosis” (Bayer Intellectual Property GmbH, priority 2008, dated 2013)",
  "test_system": "Giardia duodenalis",
  "assay": "Giardia cyst excretion in infected Beagle puppies, oral dose on three successive days (Biological Example 2)",
  "type": "in vivo",
  "method": "Method: The quantitative determination of the cyst excretion was performed using a modified version of Hewlett (18): 4 g faeces were dissolved in 100 ml of water, sieved and allowed to sediment. The sediment was applied to a 1 M sucrose gradient (specific gravity 1.13), and the cysts, which were concentrated at the sucrose/water boundary layer after the centrifugation were pipetted off. After a wash step followed by centrifugation, the cysts in the pellet were counted. To this end, an aliquot of the pellet was counted under the microscope, and the number of cysts per g faeces was calculated.\nBeagle puppies aged 11-15 weeks which had at least 2 weeks to settle in the animal centre before being infected were infected orally with 50 000 Giardia duodenalis cysts before the beginning of the study. The cysts for the infection were obtained with the aid of a sucrose gradient from the faeces of dogs which excreted Giardia cysts and stored at 4 degrees centigrade in Bacto-Casitone medium for no longer than 2 weeks. 18 puppies which excreted Giardia cysts were included in the study and kept in individual cages in order to collect the daily total faeces. The quantitative determination of the cyst excretion was performed as an […], with the modification that the aliquot of the pellet was counted under the microscope with the aid of a Fuchs-Rosenthal hematocytometer. The quantitative determination of the cyst excretion was performed for 4 days before the treatment (day −3 to 0), and the puppies were divided randomly into three groups, taking into consideration the cyst excretion. […] The 6 dogs of the control group remained untreated. The quantitative determination of the cyst excretion was continued from day 1 to day 8 after the treatment.",
  "note": "“And” between values parts separate entries of the source, which are not always exact repeats. Equal values may be shown once.",
  "data": [
    {"compound": "COC(=O)Nc1nc2ccc(Sc3ccccc3)cc2[nH]1", "note": "[fenbendazole]", "values": [
      {"measurement": "Activity", "setting": "calculated activity on cyst excretion versus infected untreated control, day 3 to 8, 50 mg/kg oral on days 0, 1 and 2, 50 mg/kg", "value": 48.3, "unit": "%"},
      {"measurement": "Σ Giardia cyst excretion D0", "setting": "group line Σ (6 dogs), D0, day of treatment, 50 mg/kg oral on days D0, D1 and D2", "value": 20274, "unit": "cysts per g faeces"},
      {"measurement": "Σ Giardia cyst excretion D1", "setting": "group line Σ (6 dogs), D1, day of treatment, 50 mg/kg oral on days D0, D1 and D2", "value": 17010, "unit": "cysts per g faeces"},
      {"measurement": "Σ Giardia cyst excretion D2", "setting": "group line Σ (6 dogs), D2, day of treatment, 50 mg/kg oral on days D0, D1 and D2", "value": 1735, "unit": "cysts per g faeces"},
      {"measurement": "Σ Giardia cyst excretion D3", "setting": "group line Σ (6 dogs), D3, after the treatment, 50 mg/kg oral on days D0, D1 and D2", "value": 13929, "unit": "cysts per g faeces"},
      {"measurement": "Σ Giardia cyst excretion D4", "setting": "group line Σ (6 dogs), D4, after the treatment, 50 mg/kg oral on days D0, D1 and D2", "value": 12781, "unit": "cysts per g faeces"},
      {"measurement": "Σ Giardia cyst excretion D5", "setting": "group line Σ (6 dogs), D5, after the treatment, 50 mg/kg oral on days D0, D1 and D2", "value": 7555, "unit": "cysts per g faeces"},
      {"measurement": "Σ Giardia cyst excretion D6", "setting": "group line Σ (6 dogs), D6, after the treatment, 50 mg/kg oral on days D0, D1 and D2", "value": 5494, "unit": "cysts per g faeces"},
      {"measurement": "Σ Giardia cyst excretion D7", "setting": "group line Σ (6 dogs), D7, after the treatment, 50 mg/kg oral on days D0, D1 and D2", "value": 12913, "unit": "cysts per g faeces"},
      {"measurement": "Σ Giardia cyst excretion D8", "setting": "group line Σ (6 dogs), D8, after the treatment, 50 mg/kg oral on days D0, D1 and D2", "value": 4795, "unit": "cysts per g faeces"},
      {"measurement": "Σ Giardia cyst excretion D−1", "setting": "group line Σ (6 dogs), day −1, before treatment, 50 mg/kg oral on days D0, D1 and D2", "value": 58990, "unit": "cysts per g faeces"},
      {"measurement": "Σ Giardia cyst excretion D−2", "setting": "group line Σ (6 dogs), day −2, before treatment, 50 mg/kg oral on days D0, D1 and D2", "value": 22257, "unit": "cysts per g faeces"},
      {"measurement": "Σ Giardia cyst excretion D−3", "setting": "group line Σ (6 dogs), day −3, before treatment, 50 mg/kg oral on days D0, D1 and D2", "value": 29963, "unit": "cysts per g faeces"},
      {"measurement": "Σ Giardia cyst excretion Day 3 to 8", "setting": "group, after treatment, 50 mg/kg oral on days 0, 1 and 2", "value": 9578, "unit": "cysts per g faeces"},
      {"measurement": "Σ Giardia cyst excretion Day: −3 to 0", "setting": "group, before treatment, 50 mg/kg oral on days 0, 1 and 2", "value": 32871, "unit": "cysts per g faeces"},
      {"measurement": "Giardia cyst excretion D0", "setting": "individual dogs, D0, day of treatment, 50 mg/kg oral on days D0, D1 and D2, 50 mg/kg", "value": "49400 cysts per g faeces and 28559 cysts per g faeces and 639 cysts per g faeces and 2719 cysts per g faeces and 17037 cysts per g faeces and 23290 cysts per g faeces"},
      {"measurement": "Giardia cyst excretion D1", "setting": "individual dogs, D1, day of treatment, 50 mg/kg oral on days D0, D1 and D2, 50 mg/kg", "value": "67200 cysts per g faeces and 14596 cysts per g faeces and 872 cysts per g faeces and 12488 cysts per g faeces and 6178 cysts per g faeces and 723 cysts per g faeces"},
      {"measurement": "Giardia cyst excretion D2", "setting": "individual dogs, D2, day of treatment, 50 mg/kg oral on days D0, D1 and D2, 50 mg/kg", "value": "0 cysts per g faeces (2×) and 5980 cysts per g faeces and 3386 cysts per g faeces and 490 cysts per g faeces and 552 cysts per g faeces"},
      {"measurement": "Giardia cyst excretion D3", "setting": "individual dogs, D3, after the treatment, 50 mg/kg oral on days D0, D1 and D2, 50 mg/kg", "value": "67109 cysts per g faeces and 7043 cysts per g faeces and 961 cysts per g faeces and 3075 cysts per g faeces and 0 cysts per g faeces and 5388 cysts per g faeces"},
      {"measurement": "Giardia cyst excretion D4", "setting": "individual dogs, D4, after the treatment, 50 mg/kg oral on days D0, D1 and D2, 50 mg/kg", "value": "49423 cysts per g faeces and 652 cysts per g faeces and 439 cysts per g faeces and 12038 cysts per g faeces and 0 cysts per g faeces and 14133 cysts per g faeces"},
      {"measurement": "Giardia cyst excretion D5", "setting": "individual dogs, D5, after the treatment, 50 mg/kg oral on days D0, D1 and D2, 50 mg/kg", "value": "3116 cysts per g faeces and 18725 cysts per g faeces and 4432 cysts per g faeces and 0 cysts per g faeces (2×) and 19057 cysts per g faeces"},
      {"measurement": "Giardia cyst excretion D6", "setting": "individual dogs, D6, after the treatment, 50 mg/kg oral on days D0, D1 and D2, 50 mg/kg", "value": "4635 cysts per g faeces and 7546 cysts per g faeces and 5594 cysts per g faeces and 3691 cysts per g faeces and 0 cysts per g faeces and 11495 cysts per g faeces"},
      {"measurement": "Giardia cyst excretion D7", "setting": "individual dogs, D7, after the treatment, 50 mg/kg oral on days D0, D1 and D2, 50 mg/kg", "value": "17474 cysts per g faeces and 20780 cysts per g faeces and 260 cysts per g faeces and 18056 cysts per g faeces and 251 cysts per g faeces and 20657 cysts per g faeces"},
      {"measurement": "Giardia cyst excretion D8", "setting": "individual dogs, D8, after the treatment, 50 mg/kg oral on days D0, D1 and D2, 50 mg/kg", "value": "0 cysts per g faeces (2×) and 5555 cysts per g faeces and 5968 cysts per g faeces and 10875 cysts per g faeces and 6370 cysts per g faeces"},
      {"measurement": "Giardia cyst excretion D−1", "setting": "individual dogs, day −1, before treatment, 50 mg/kg oral on days D0, D1 and D2, 50 mg/kg", "value": "243143 cysts per g faeces and 56014 cysts per g faeces and 2349 cysts per g faeces and 16328 cysts per g faeces and 14744 cysts per g faeces and 21360 cysts per g faeces"},
      {"measurement": "Giardia cyst excretion D−2", "setting": "individual dogs, day −2, before treatment, 50 mg/kg oral on days D0, D1 and D2, 50 mg/kg", "value": "47754 cysts per g faeces and 23808 cysts per g faeces and 26526 cysts per g faeces and 18113 cysts per g faeces and 7230 cysts per g faeces and 10109 cysts per g faeces"}
    ]}
  ]
}
